The results in this text go back to ChEMBL document CHEMBL3091346, “Structure-activity relationship studies of thalidomide analogs with a taxol-like mode of action” (Bioorg Med Chem Lett, 2013).

Assay [1] addresses T1, Tubulin (Sus scrofa) (UniProt P02554+P02550). Description: Induction of purified porcine brain tubulin polymerization at 50 uM by spectrophotometric analysis.
A further assay concerns MDA-MB-231. Description: Antiproliferative activity against human MDA-MB-231 cells assessed as growth inhibition by MTS assay. Format: functional, cell-based.
The next assay has as its system DU-145. Description: Antiproliferative activity against human DU145 cells assessed as growth inhibition by MTS assay. Format: functional, cell-based. (Formazan colour is commonly taken as a measure of viable cells.)
The subject of assay [2] is PC-3. Nature of the assay: Antiproliferative activity against human PC3 cells assessed as growth inhibition by MTS assay. In kind it is functional, cell-based.
Assay [3] deals with PC-3. Nature of the assay: Antiproliferative activity against human PC3 cells assessed as growth inhibition at 30 uM by MTS assay. In kind it is functional. To be noted: read-out: GI.
The target of assay [4] is T1, Tubulin (Sus scrofa). Description: Induction of purified porcine brain tubulin polymerization assessed as microtubule-stabilization at 50 uM by spectrophotometric analysis.

The source made the active and inactive calls. The calls are words filed in the database; no cut-off is given here.

For orientation: IC50 means the concentration that gives 50% inhibition.

T1 sequence (P02550 whole entry, looked up): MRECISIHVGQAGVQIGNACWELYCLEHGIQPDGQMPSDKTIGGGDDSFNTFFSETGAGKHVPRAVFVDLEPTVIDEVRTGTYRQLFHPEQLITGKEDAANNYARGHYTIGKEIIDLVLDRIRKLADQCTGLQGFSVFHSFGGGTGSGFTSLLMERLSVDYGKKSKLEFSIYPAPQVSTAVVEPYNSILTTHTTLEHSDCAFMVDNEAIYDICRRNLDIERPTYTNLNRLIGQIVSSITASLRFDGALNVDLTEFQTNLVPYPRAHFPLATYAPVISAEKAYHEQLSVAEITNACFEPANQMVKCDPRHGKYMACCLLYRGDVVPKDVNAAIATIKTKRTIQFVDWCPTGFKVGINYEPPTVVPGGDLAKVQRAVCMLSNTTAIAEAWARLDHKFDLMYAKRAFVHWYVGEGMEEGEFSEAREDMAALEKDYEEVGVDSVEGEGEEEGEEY
T1 sequence (P02554 whole entry, looked up): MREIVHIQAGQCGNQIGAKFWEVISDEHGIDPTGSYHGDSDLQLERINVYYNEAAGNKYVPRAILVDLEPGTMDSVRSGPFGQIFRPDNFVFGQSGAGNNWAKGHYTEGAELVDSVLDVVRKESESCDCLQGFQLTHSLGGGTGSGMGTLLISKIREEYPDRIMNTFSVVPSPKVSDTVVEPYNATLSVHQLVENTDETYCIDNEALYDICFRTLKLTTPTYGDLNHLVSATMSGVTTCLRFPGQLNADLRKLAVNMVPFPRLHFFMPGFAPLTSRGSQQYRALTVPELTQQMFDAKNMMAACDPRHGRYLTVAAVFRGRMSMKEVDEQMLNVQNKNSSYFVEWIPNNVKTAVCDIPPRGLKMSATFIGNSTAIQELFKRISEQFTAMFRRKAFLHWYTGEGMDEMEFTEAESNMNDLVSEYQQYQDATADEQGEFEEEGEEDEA

Regarding `CC(C)c1cccc(C(C)C)c1N1C(=O)c2cccc(O)c2C1=O`, the result at Tubulin (Sus scrofa) [1] was Active. Also, the IC50 in the assay with MDA-MB-231 was 15 µM; in the assay with DU-145 it was 45.6 µM; in the assay on PC-3 [2], 45.2 µM.
As to `O=C1c2ccccc2C(=O)N1c1c(Br)cccc1Br`, the inhibition of growth at 30 µM in the assay with PC-3 [3] was 21.9%.
Regarding `CC(C)c1cccc(C(C)C)c1N1C(=O)c2ccc([N+](=O)[O-])cc2C1=O`, the IC50 in the assay with MDA-MB-231 is more than 50 µM; in the assay on DU-145 it was 15 µM.
As to `O=C1c2ccccc2C(=O)N1c1cc(Cl)cc(Cl)c1`, the inhibition of growth at 30 µM with PC-3 [3] was less than 10%.
For the compound `COC(=O)c1ccc2c(c1)C(=O)N(c1c(C(C)C)cccc1C(C)C)C2=O`, the values for the IC50 in the assay with MDA-MB-231, in the assay with DU-145 and in the assay with PC-3 [2] were 6.87 µM, 24.6 µM and 21.8 µM, respectively.
On to `COc1ccc(N2C(=O)c3ccccc3C2=O)cc1OC`, for which, in the assay with PC-3 [3], the inhibition of growth at 30 µM came to 10.2%.
For `CC(C)c1cccc(C(C)C)c1N1C(=O)c2cccc([N+](=O)[O-])c2C1=O`, the IC50 in the assay with MDA-MB-231 is 37.7 µM; in the assay with DU-145 it was more than 50 µM; in the assay on PC-3 [2] it was 38.3 µM.
In the same order, the values of `CC(C)c1cccc(C(C)C)c1N1C(=O)c2cccc(N)c2C1=O` are 7.24 µM, 8.14 µM and 6.26 µM.
With `O=C1c2ccccc2C(=O)N1c1c(Cl)cccc1Cl`, the inhibition of growth at 30 µM with PC-3 [3] was less than 10%.
Same read-out and setting: next, `O=C1c2ccccc2C(=O)N1c1ccc(Cl)cc1Cl`: less than 10%; `O=C1c2ccccc2C(=O)N1c1ccc(Cl)c(Cl)c1`: less than 10%.
`O=C1c2ccccc2C(=O)N1c1cccc2ccccc12`: the inhibition of growth at 30 µM in the assay with PC-3 [3] is less than 10%.
With `CC(C)c1cccc(C(C)C)c1N1C(=O)c2ccc(C(=O)O)cc2C1=O`, the IC50 in the assay on MDA-MB-231 stood at 5.56 µM; in the assay with DU-145 it was 9.16 µM; in the assay on PC-3 [2] it was 6.4 µM.
On to `O=C1c2ccccc2C(=O)N1c1cc(Cl)ccc1Cl`, for which the inhibition of growth at 30 µM with PC-3 [3] was less than 10%.
Turning to `CC(C)c1cccc(C(C)C)c1N1C(=O)c2ccccc2C1=O`, the IC50 was determined as 4.12 µM in the assay on MDA-MB-231, 7.12 µM with DU-145 and 4.01 µM with PC-3 [2].
Regarding `CC(C)c1cccc(C(C)C)c1N1C(=O)c2ccc(O)cc2C1=O`, the outcome at Tubulin (Sus scrofa) [4] and at Tubulin (Sus scrofa) [1] was Active. In addition, the half-inhibitory concentration (IC50) worked out at 5.35 µM in the assay with MDA-MB-231, 5.74 µM in the assay on DU-145 and 8.3 µM in the assay on PC-3 [2]. Besides, in the assay on PC-3 [3], the inhibition of growth at 30 µM was more than 90%.
In the case of `CCc1cccc(CC)c1N1C(=O)c2ccc(O)cc2C1=O`, the outcome at Tubulin (Sus scrofa) [4] was Active. Moreover, the half-maximal inhibitory concentration (IC50) is 29.2 µM in the assay on MDA-MB-231, 45.9 µM with DU-145 and more than 50 µM in the assay on PC-3 [2].
Consider `Cc1cccc(C)c1N1C(=O)c2ccccc2C1=O`, for which the inhibition of growth at 30 µM with PC-3 [3] is less than 10%.
As for `Cc1cccc(C)c1N1C(=O)c2ccc(O)cc2C1=O`, the result at Tubulin (Sus scrofa) [4] was inactive. Also, the IC50 in the assay with MDA-MB-231, in the assay on DU-145 and in the assay on PC-3 [2] was more than 50 µM throughout.
Take `CC(C)c1cccc(C(C)C)c1N1C(=O)c2ccc(Cl)cc2C1=O`: the IC50 came to 10.6 µM in the assay on MDA-MB-231, 14.1 µM in the assay with DU-145 and 5.52 µM in the assay with PC-3 [2].
For `Cc1ccc2c(c1)C(=O)N(c1c(C(C)C)cccc1C(C)C)C2=O` the same measures were 4.85 µM, 6.62 µM and 8.02 µM.
With `Cc1ccc(N2C(=O)c3ccccc3C2=O)cc1C`, the inhibition of growth at 30 µM in the assay with PC-3 [3] was less than 10%.
For the compound `CC(C)c1cccc(C(C)C)c1N1C(=O)c2ccc(N)cc2C1=O`, the result at Tubulin (Sus scrofa) [1] was Active. Further, the IC50 is 7.24 µM in the assay with MDA-MB-231, 3.94 µM in the assay on DU-145 and 2.07 µM with PC-3 [2].
For `O=C1c2ccccc2C(=O)N1c1ccc([N+](=O)[O-])c(C(F)(F)F)c1`, in the assay on PC-3 [3], the inhibition of growth at 30 µM was less than 10%.
Same read-out and setting: next, `O=C1c2ccccc2C(=O)N1c1c(F)cccc1F`: less than 10%; `O=C1c2ccccc2C(=O)N1c1ccc2ccccc2c1`: 16%.
